Test results from US20130085064A1, “PESTICIDAL MIXTURES CONTAINING ISOXAZOLINE DERIVATIVES AND INSECTICIDE OR NEMATOICIDAL BIOLOGICAL AGENT” (priority 2010, published 2013).
Several values for one entry are separate records, joined by “and”; a condition that tells them apart may be missing. Identical values can stand only once.

Key:
Format in all cases: in vivo
[1] = test system: Spodoptera littoralis (Egyptian cotton leaf worm); test: Spodoptera littoralis larvicide L1, feeding/contact, cotton leaf discs; conditions: single compound
Text: (§1) The action to be expected E for a given active ingredient combination obeys the so-called COLBY formula and can be calculated as follows (COLBY, S.R. “Calculating synergistic and antagonistic responses of herbicide combination”. Weeds, Vol. 15, pages 20-22; 1967):
(§2) ppm=milligrams of active ingredient (=a.i.) per liter of spray mixture X=% action by active ingredient A) using p ppm of active ingredient Y=% action by active ingredient B) using q ppm of active ingredient.
(§3) According to COLBY, the expected (additive) action of active ingredients A)+B) using p+q ppm of active ingredient is
(§4) If the action actually observed (O) is greater than the expected action (E), then the action of the combination is super-additive, i.e. there is a synergistic effect. In mathematical terms the synergism factor SF corresponds to O/E. In the agricultural practice an SF of ≧1.2 indicates significant improvement over the purely complementary addition of activities (expected activity), while an SF of ≦0.9 in the practical application routine signals a loss of activity compared to the expected activity.
Spodoptera Littoralis (Egyptian Cotton Leaf Worm)
(Larvicide L1, Feeding/Contact)
Cotton leaf discs are placed on agar in Petri dishes and sprayed with test solutions in an application chamber. After drying, the leaf discs are infested with 10 L1 larvae. The samples are checked for mortality 5 days after treatment. 3 replicates per treatment were evaluated. (1 PPM=1 mg l^−1)

[2] = test system: Heliothis virescens (tobacco budworm); test: Heliothis virescens ovo-larvicide, feeding/contact, eggs on filter paper in Petri dishes; conditions: for AVERAGE DEAD IN % (LARVAE): single compound, 7 days
Text: as §1, §2, §3, §4
Heliothis Virescens (Tobacco Budworm):
(Ovo-Larvicide, Feeding/Contact)
30-35 fresh eggs (0-24 h old), deposited on filter paper, are placed in Petri dishes on top of a layer of artificial diet and 0.8 ml of diluted test solutions are pipetted onto them. After an incubation period of 7 days, samples are checked for egg and larval mortality. 3 replicates per treatment were evaluated.

[3] = test system: Heliothis virescens (tobacco budworm); test: Heliothis virescens eggs in 24-well microtiter plate on artificial diet, larval mortality
Method in brief: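 Eggs 0–24 h old on artificial diet were treated by pipetting test solutions in DMSO. Larval mortality scored after 4 days; combination effects assessed against Colby-expected action, with synergism factor = observed/expected.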

[4] = test system: Tetranychus urticae (two spotted spider mite); test: Tetranychus urticae contact/feeding activity on bean plants, adult mortality
Text: as §1, §2, §3, §4
Tetranychus Urticae (Two Spotted Spider Mite)
(Contact/Feeding Activity)
Bean plants are infested with mite populations of mixed ages. 1 day after infestation, plants are treated in a spray chamber with diluted test solutions. 1 and 8 days later, samples are checked for adult mortality. 2 replicates per treatment were evaluated.

[5] = test system: Tetranychus urticae (two-spotted spider mite); test: Tetranychus urticae bean leaf discs in 24-well microtiter plates, mixed population mortality; conditions: 8 days
Text: as §1, §2, §3, §4
Tetranychus Urticae (Two-Spotted Spider Mite)
Bean leaf discs on agar in 24-well microtiter plates are sprayed with test solutions (DMSO). After drying, the leaf discs are infested with mite populations of mixed ages. 8 days later, discs are checked for mixed population mortality.

abamectin
AVERAGE DEAD IN % AFTER 5 DAYS ([1]; 0.4 PPM AI): 10% and 7% | AVERAGE DEAD IN % AFTER 5 DAYS ([1]; 0.8 PPM AI): 13% and 10% | AVERAGE DEAD IN % AFTER 5 DAYS ([1]; 1.6 PPM AI): 40% and 20% | activity on eggs ([2]; egg mortality, 7 days incubation): inactive | AVERAGE DEAD IN % (LARVAE) ([2]; 0.025 ppm AI): 3% | AVERAGE DEAD IN % (LARVAE) ([2]; 0.05 ppm AI): 37% | AVERAGE DEAD IN % (LARVAE) ([2]; 0.1 ppm AI): 53% | AVERAGE DEAD IN % ([3]; single compound at 0.2 ppm AI): 0% | AVERAGE DEAD IN % ([3]; single compound at 0.4 ppm AI): 45% | AVERAGE DEAD IN % ([3]; single compound at 0.8 ppm AI): 68% | AVERAGE DEAD IN % ([3]; single compound at 1.6 ppm AI): 78% | AVERAGE DEAD IN % ([3]; single compound at 3.2 ppm AI): 100% | AVERAGE DEAD IN % ([3]; single compound at 6.4 ppm AI): 100% | AVERAGE DEAD IN % AFTER 8 DAYS ([4]; 0.0015 ppm alone): 25% | AVERAGE DEAD IN % AFTER 8 DAYS ([4]; 0.003 ppm alone): 20% | AVERAGE DEAD IN % AFTER 8 DAYS ([4]; 0.006 ppm alone): 25% | AVERAGE DEAD IN % AFTER 1 DAY ([4]; Abamectin alone 0.0015 ppm AI): 0% | AVERAGE DEAD IN % AFTER 1 DAY ([4]; Abamectin alone 0.003 ppm AI): 0% | AVERAGE DEAD IN % AFTER 1 DAY ([4]; Abamectin alone 0.006 ppm AI): 0% | AVERAGE DEAD IN % ([5]; 0.0002 ppm alone): 0% | AVERAGE DEAD IN % ([5]; 0.0004 ppm alone): 0% | AVERAGE DEAD IN % ([5]; 0.0008 ppm alone): 0% | AVERAGE DEAD IN % ([5]; 0.0015 ppm alone): 0% | AVERAGE DEAD IN % ([5]; 0.003 ppm alone): 0% | AVERAGE DEAD IN % ([5]; 0.006 ppm alone): 0% | AVERAGE DEAD IN % ([5]; 0.0125 ppm alone): 0% | AVERAGE DEAD IN % ([5]; 0.025 ppm alone): 0% | AVERAGE DEAD IN % ([5]; 0.05 ppm alone): 85% | AVERAGE DEAD IN % ([5]; 0.1 ppm alone): 85% | AVERAGE DEAD IN % ([5]; Abamectin alone, 0.0002 ppm, Table 120): 0% | AVERAGE DEAD IN % ([5]; Abamectin alone, 0.0004 ppm, Table 120): 0% | AVERAGE DEAD IN % ([5]; Abamectin alone, 0.0008 ppm, Table 120): 0% | AVERAGE DEAD IN % ([5]; Abamectin alone, 0.0015 ppm, Table 120): 0% | AVERAGE DEAD IN % ([5]; Abamectin alone, 0.003 ppm, Table 120): 0% | AVERAGE DEAD IN % ([5]; Abamectin alone, 0.006 ppm, Table 120): 0% | AVERAGE DEAD IN % ([5]; Abamectin alone, 0.0125 ppm, Table 120): 0% | AVERAGE DEAD IN % ([5]; Abamectin alone, 0.025 ppm, Table 120): 0% | AVERAGE DEAD IN % ([5]; Abamectin alone, 0.05 ppm, Table 120): 70% | AVERAGE DEAD IN % ([5]; Abamectin alone, 0.1 ppm, Table 120): 80%
